Results taken from ChEMBL document CHEMBL6177930, “2-(4-Bromobenzyl) tethered 4-amino aryl/alkyl-5,6,7,8-tetrahydrobenzo[4,5]thieno[2,3-d]pyrimidines: design, synthesis, anticancer assessment via dual topoisomerase-I/II inhibition, and in silico studies” (RSC Med Chem, 2025).

What was measured:
FaDu = experiment: Antiproliferative activity against human FaDu cells assessed as inhibition of cell growth at 10 uM measured after 48 to 72 hrs by MTT assay relative to control; format: functional; conditions: time 48-72 hrs
MCF7 = experiment: Antiproliferative activity against human MCF7 cells assessed as inhibition of cell growth at 10 uM measured after 48 to 72 hrs by MTT assay relative to control; format: functional; conditions: time 48-72 hrs
A549 = experiment: Antiproliferative activity against human A549 cells assessed as inhibition of cell growth at 10 uM measured after 48 to 72 hrs by MTT assay relative to control; format: functional; conditions: time 48-72 hrs
MDA-MB-231 = experiment: Antiproliferative activity against human MDA-MB-231 cells assessed as inhibition of cell growth at 10 uM measured after 48 to 72 hrs by MTT assay relative to control; format: functional; conditions: time 48-72 hrs
[1] = Antiproliferative activity against human HCC cells assessed as inhibition of cell growth at 10 uM measured after 48 to 72 hrs by MTT assay relative to control; format: functional; conditions: time 48-72 hrs
T47D = experiment: Antiproliferative activity against human T47D cells assessed as inhibition of cell growth at 10 uM measured after 48 to 72 hrs by MTT assay relative to control; format: functional; conditions: time 48-72 hrs
HEK293 = experiment: Antiproliferative activity against HEK293 cells assessed as inhibition of cell growth at 10 to 25 uM measured after 48 to 72 hrs by MTT assay; format: toxicity, cell-based; conditions: human, hek293, 25 µM; dose lower 10 µM, time lower 48 hrs, dose upper 25 µM, time upper 72 hrs
[2] = target: T1, DNA topoisomerase 1 (Homo sapiens) (UniProt P11387); experiment: Inhibition of human topoisomerase-I extracted from baculovirus expression system using SC-DNA as substrate incubated for 30 mins by EtBr staining based agarose gel electrophoresis method
T1 sequence (whole entry): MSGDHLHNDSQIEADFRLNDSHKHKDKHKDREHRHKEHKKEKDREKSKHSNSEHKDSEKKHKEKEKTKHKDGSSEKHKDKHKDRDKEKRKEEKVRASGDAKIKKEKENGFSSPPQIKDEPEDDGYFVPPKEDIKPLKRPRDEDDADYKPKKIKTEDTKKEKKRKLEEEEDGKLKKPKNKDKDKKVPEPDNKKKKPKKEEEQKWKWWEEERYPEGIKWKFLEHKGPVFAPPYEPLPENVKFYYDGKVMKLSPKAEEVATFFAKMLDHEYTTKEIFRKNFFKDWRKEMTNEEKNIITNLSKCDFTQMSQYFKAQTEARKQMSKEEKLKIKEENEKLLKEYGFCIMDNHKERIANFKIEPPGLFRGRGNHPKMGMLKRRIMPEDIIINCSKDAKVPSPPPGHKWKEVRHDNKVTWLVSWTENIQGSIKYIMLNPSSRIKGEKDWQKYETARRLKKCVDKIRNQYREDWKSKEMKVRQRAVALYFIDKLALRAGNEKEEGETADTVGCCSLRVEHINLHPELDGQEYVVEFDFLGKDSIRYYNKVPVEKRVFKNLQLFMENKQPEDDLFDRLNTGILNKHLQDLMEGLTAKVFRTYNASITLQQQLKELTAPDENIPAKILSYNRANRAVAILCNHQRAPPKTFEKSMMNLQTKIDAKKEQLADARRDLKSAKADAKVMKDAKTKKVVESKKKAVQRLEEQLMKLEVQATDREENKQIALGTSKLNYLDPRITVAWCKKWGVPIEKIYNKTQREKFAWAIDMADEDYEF

[3] = target: T1, DNA topoisomerase 1 (Homo sapiens); experiment: Inhibition of human topoisomerase-I extracted from baculovirus expression system assessed as relaxation of supercoiled DNA using SC-DNA as substrate incubated for 30 mins by EtBr staining based agarose gel electrophoresis method
[4] = target: DNA topoisomerase 2-alpha (Homo sapiens) (UniProt P11388); experiment: Inhibition of human topoisomerase-II alpha assessed as reduction in decatenation activity using kinetoplast DNA as substrate incubated for 30 mins by EtBr staining based agarose gel electrophoresis method
[5] = target: T2, Prostaglandin G/H synthase 1 (Ovis aries) (UniProt P05979); experiment: Inhibition of ovine COX-1 at 10 uM relative to control
T2 sequence (whole entry): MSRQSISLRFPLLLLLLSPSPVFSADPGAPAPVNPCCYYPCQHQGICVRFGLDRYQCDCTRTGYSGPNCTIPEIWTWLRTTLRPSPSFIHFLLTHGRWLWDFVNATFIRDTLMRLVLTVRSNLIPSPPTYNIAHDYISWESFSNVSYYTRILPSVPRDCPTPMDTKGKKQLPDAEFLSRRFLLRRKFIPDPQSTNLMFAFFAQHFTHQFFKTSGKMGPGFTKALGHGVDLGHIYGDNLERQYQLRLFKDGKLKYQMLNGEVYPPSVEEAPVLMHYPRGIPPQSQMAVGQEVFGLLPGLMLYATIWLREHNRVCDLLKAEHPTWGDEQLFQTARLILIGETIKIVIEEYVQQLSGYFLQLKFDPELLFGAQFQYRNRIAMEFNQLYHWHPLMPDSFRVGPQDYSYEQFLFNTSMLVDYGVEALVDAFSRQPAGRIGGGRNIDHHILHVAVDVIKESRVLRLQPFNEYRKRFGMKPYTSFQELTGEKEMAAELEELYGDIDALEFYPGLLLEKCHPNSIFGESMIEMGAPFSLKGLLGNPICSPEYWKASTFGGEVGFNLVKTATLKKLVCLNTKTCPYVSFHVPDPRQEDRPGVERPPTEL

[6] = target: T3, Prostaglandin G/H synthase 2 (Homo sapiens) (UniProt P35354); experiment: Inhibition of human recombinant COX-2 at 10 uM relative to control
T3 sequence (whole entry): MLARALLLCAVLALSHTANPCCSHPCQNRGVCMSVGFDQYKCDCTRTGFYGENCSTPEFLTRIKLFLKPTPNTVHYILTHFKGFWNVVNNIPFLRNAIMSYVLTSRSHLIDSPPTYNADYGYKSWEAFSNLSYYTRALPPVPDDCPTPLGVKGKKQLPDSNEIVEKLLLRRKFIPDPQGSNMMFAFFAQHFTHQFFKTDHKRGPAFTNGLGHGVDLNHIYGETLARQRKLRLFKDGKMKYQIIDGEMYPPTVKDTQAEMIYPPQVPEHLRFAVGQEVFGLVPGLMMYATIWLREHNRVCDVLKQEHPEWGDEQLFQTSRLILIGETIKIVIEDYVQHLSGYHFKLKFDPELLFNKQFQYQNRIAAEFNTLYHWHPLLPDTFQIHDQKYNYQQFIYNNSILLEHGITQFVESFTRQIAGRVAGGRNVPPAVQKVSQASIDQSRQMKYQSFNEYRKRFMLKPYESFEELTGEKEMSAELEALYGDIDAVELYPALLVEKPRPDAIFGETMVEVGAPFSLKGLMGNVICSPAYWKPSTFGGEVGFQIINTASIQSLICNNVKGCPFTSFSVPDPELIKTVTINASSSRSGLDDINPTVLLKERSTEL

Sequence of DNA topoisomerase 2-alpha (Homo sapiens) (P11388 whole entry): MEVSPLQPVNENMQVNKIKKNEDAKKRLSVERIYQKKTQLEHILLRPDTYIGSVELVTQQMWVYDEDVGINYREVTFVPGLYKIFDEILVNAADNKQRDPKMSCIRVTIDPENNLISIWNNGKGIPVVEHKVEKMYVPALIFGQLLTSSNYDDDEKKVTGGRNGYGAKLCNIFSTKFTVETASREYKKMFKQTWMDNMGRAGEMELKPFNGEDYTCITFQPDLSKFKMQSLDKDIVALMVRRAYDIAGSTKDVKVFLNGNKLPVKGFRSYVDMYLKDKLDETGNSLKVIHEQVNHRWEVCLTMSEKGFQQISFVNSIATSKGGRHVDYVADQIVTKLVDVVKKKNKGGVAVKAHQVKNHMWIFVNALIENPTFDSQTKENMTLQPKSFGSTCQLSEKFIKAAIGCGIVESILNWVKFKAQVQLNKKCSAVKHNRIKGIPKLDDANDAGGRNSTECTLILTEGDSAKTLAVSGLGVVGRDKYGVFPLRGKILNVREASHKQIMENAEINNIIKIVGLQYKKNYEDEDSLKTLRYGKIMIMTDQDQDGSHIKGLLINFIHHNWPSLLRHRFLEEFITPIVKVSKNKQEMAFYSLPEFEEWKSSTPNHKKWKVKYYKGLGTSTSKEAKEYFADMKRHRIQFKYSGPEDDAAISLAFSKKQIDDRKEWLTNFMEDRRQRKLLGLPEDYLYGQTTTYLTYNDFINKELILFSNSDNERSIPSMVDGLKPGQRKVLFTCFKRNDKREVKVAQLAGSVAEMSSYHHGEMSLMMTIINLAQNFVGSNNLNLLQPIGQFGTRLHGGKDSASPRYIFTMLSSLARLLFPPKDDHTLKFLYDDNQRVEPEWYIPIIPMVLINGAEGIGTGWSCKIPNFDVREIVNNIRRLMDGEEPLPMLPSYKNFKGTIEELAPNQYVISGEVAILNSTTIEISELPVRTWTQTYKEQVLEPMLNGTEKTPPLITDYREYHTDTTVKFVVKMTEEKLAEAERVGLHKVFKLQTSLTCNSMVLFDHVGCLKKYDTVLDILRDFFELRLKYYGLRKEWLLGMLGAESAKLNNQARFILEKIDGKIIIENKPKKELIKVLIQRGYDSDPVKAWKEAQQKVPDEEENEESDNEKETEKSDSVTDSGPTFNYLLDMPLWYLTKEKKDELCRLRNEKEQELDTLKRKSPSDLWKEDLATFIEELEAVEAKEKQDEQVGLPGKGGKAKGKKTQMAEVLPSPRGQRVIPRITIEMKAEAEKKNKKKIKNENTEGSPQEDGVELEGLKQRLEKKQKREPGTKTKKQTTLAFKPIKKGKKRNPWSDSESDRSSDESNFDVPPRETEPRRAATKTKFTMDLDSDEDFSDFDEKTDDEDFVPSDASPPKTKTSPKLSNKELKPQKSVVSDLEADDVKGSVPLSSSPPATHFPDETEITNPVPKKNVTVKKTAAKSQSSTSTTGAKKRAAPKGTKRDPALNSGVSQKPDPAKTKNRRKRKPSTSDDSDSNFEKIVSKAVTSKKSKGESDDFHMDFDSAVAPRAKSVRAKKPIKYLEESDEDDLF

SMILES | inhibition at 10 µM (FaDu) [%] | inhibition at 10 µM (MCF7) [%] | inhibition at 10 µM (A549) [%] | inhibition at 10 µM (MDA-MB-231) [%] | inhibition at 10 µM [1] [%] | inhibition at 10 µM (T47D) [%] | Activity (HEK293) | inhibition [2] | inhibition [3] | inhibition [4] | inhibition [5] [%] | inhibition [6] [%]
Brc1ccc(Cc2nc(NC3CC3)c3c4c(sc3n2)CCCC4)cc1 | 28.9 | 38.5 | 1.11 | 2.23 | 2.11 | 1.31 |  |  |  |  |  | 
Brc1ccc(Cc2nc(NC3CCCCC3)c3c4c(sc3n2)CCCC4)cc1 | 27.4 | 19 | 1.56 | 1.22 | 12.8 | 1.35 |  |  |  |  |  | 
Fc1ccccc1CNc1nc(Cc2ccc(Br)cc2)nc2sc3c(c12)CCCC3 | 26.2 | 19.4 | 3.45 | 6.27 | 2.55 | 2.14 |  |  |  |  |  | 
OCCNc1nc(Cc2ccc(Br)cc2)nc2sc3c(c12)CCCC3 | 50.2 | 2.71 | 1.21 | 2.1 | 2 | 5.73 |  |  |  |  |  | 
Brc1ccc(Cc2nc(-n3ccnc3)c3c4c(sc3n2)CCCC4)cc1 | 46.9 | 3.19 | 2.45 | 12.8 | 2.03 | 1.99 |  |  |  |  |  | 
Fc1ccc(CNc2nc(Cc3ccc(Br)cc3)nc3sc4c(c23)CCCC4)cc1 | 21.4 | 0.55 | 1.55 | 10.8 | 1.36 | 2.58 |  |  |  |  |  | 
Clc1ccccc1CNc1nc(Cc2ccc(Br)cc2)nc2sc3c(c12)CCCC3 | 18.1 | 9.51 | 2.67 | 0.1 | 1.55 | 3.69 |  |  |  |  |  | 
CC(C)(C)OC(=O)N1CCN(c2nc(Cc3ccc(Br)cc3)nc3sc4c(c23)CCCC4)CC1 | 16.6 | 15.1 | 0.29 | 38.9 | 2.01 | 3.33 |  |  |  |  |  | 
CNc1nc(Cc2ccc(Br)cc2)nc2sc3c(c12)CCCC3 | 23.4 | 18.7 | 2.65 | 1.09 | 1.28 | 1.69 |  |  |  |  |  | 
CCN(CC)c1nc(Cc2ccc(Br)cc2)nc2sc3c(c12)CCCC3 | 34.2 | 15.7 | 2.22 | 1.91 | 1.47 | 2.88 |  |  |  |  |  | 
Fc1cc(CNc2nc(Cc3ccc(Br)cc3)nc3sc4c(c23)CCCC4)cc(F)c1F | 25.8 | 8.28 | 6.63 | 2.39 | 1.57 | 3.01 |  |  |  |  |  | 
CCCNc1nc(Cc2ccc(Br)cc2)nc2sc3c(c12)CCCC3 | 56.2 | 3.16 | 3.63 | 3.11 | 1.37 | 17.3 |  |  |  |  |  | 
C=CCNc1nc(Cc2ccc(Br)cc2)nc2sc3c(c12)CCCC3 | 45.2 | 20.5 | 2.89 | 1.17 | 1.55 | 2.35 |  |  |  |  |  | 
Nc1ccccc1CNc1nc(Cc2ccc(Br)cc2)nc2sc3c(c12)CCCC3 | 25.9 | 2.66 | 1.33 | 5.74 | 1.89 | 1.79 |  |  |  |  |  | 
Brc1ccc(Cc2nc(N3CCCC3)c3c4c(sc3n2)CCCC4)cc1 | 49.2 | 19.4 | 10.3 | 8.72 | 1.36 | 3.74 |  |  |  |  |  | 
Brc1ccc(Cc2nc(NCc3ccccn3)c3c4c(sc3n2)CCCC4)cc1 | 29.1 | 4.03 | 3.32 | 1.25 | 2.05 | 17.9 |  |  |  |  |  | 
Brc1ccc(Cc2nc(NCc3ccccc3)c3c4c(sc3n2)CCCC4)cc1 | 24.3 | 0.55 | 3.12 | 4.99 | 1.79 | 11.2 |  |  |  |  |  | 
C#Cc1cccc(Nc2ncnc3cc(OCCOC)c(OCCOC)cc23)c1 [ERLOTINIB] | 19.7 | 6.71 |  | 19.6 | 4.19 | 1.27 |  |  |  |  |  | 
NCCCNc1nc(Cc2ccc(Br)cc2)nc2sc3c(c12)CCCC3 | 54.1 | 8.28 | 8.86 | 1.12 | 8.12 | 8.24 |  |  |  |  |  | 
Brc1ccc(Cc2nc(NCCN3CCNCC3)c3c4c(sc3n2)CCCC4)cc1 | 74.7 | 19.4 | 34.2 | 1.23 | 1.24 | 54 | Non-toxic | Active; Compound Showed Potent Inhibition Activity Than Camptothecin | Active; Compound Showed Significant Inhibition Than Compound 7A | Active; Compound Showed Weak Effect | 28.5 | 57.9
COc1ccc(CNc2nc(Cc3ccc(Br)cc3)nc3sc4c(c23)CCCC4)cc1 | 26.8 | 29.6 | 1.69 | 13.7 | 1.01 | 1.05 |  |  |  |  |  | 
